Laboratory results reported in patent EP0475411B1, “Novel carbocyclic adenosine analogs useful as immunosuppressants” (Aventis Pharmaceuticals Inc., priority 1990, dated 1992).
Where a name gives a salt, the structure may show the parent alone. Read-outs that look alike come from different tables or passages of the source.

Key:
[1] = test system: Rat peritoneal macrophages; test: Inhibition of priming of rat peritoneal macrophages (opsonized zymosan + rrIFN-γ), Superoxide Anion (O2-) assay; type: cell-based; conditions: opsonized zymosan 3 mg/mL, rrIFN-γ 1000 Units/mL; compound 0 to 1000 µM; superoxide anion readout; read-out: IC50 (inhibits the priming of rat macrophages in vitro)
Protocol: Rat peritoneal macrophages were isolated and grown in cell culture essentially as described by Edwards et al. [Science 239, 769 (1988)]. Macrophages were incubated along with opsonized zymosan (3 mg/mL), which acts as a particulate stimulus, and recombinant rat γ-interferon (rrIFN-y)(1000Units/mL), which acts as an activating lymphokine, in the presence of various concentrations of (1S,3R)-Cis-l(9-adenyl)-3-hydroxycyclopentane (0 to 1000µM). The degree of macrophage priming was measured using the Superoxide Anion (O2-) assay as described by Edwards et al. [Science 239, 769 (1988)].

[2] = test system: rat PMNs; test: Inhibition of priming of rat PMN (PMA + rrIFN-γ or rHuIL-1), Superoxide Anion (O2-) assay; type: cell-based; conditions: PMA 200 ηg/mL, compound 0 to 1000 µM, superoxide anion readout
Protocol: The rat air pouch model of inflammation was used to obtain rat PMNs using 25ηg/pouch of recombinant human interleukin-1 (rHuIL-1) to elicit the cells essentially according to the method of Esser et al. [Internat. J. Tissue Reactions XI, 291 (1989)]. PMNs were incubated along with phorbol myristate acetate (PMA)(200ηg/mL), which acts as a soluble stimulus, and rrIFN-γ (1000 Units/mL), which acts as a stimulatory lymphokine, or rHuIL-1 (500 Units/mL), which acts as a stimulatory cytokine, in the presence of various concentrations of (1S,3R)-Cis-1(9-adenyl)-3-hydroxycyclopentane (0 to 1000 µM). The degree of macrophage priming was measured using the Superoxide Anion (O2-) assay as described by Edwards et al. [Science 239, 769 (1988)].

| IC50 [1] [nM] | IC50 ([2]; rHuIL-1 500 Units/mL, read-out: IC50 (inhibits the rHuIL-1 priming of rat PMN in vitro)) [nM] | IC50 ([2]; rrIFN-γ 1000 Units/mL, read-out: IC50 (inhibits the rrIFN-γ priming of rat PMN in vitro)) [nM] | Molecule |
| --- | --- | --- | --- |
| 2500 |  |  | (1S,3R)-Cis-l(9-adenyl)-3-hydroxy-4-cyclopentene |
|  | 1 | 1 | Nc1ncnc2c1ncn2[C@H]1CC[C@@H](O)C1 [(1S,3R)-Cis-1-(9-adenyl)-3-hydroxycyclopentane hydrochloride] |
